Results as given in patent publication US20110237629A1, “AMINO ACID ESTER PRODRUGS AND THE USE THEREOF” (Bayer Schering Pharma Aktiengesellschaft, priority 2008, published 2011).
Counter-ions that a name gives are not always drawn.

Key:
Format in all cases: physicochemical
[1] = Stability in buffer at various pH values
Experimental: 0.3 mg of the test substance is weighed into a 2 ml HPLC vial and 0.5 ml of acetonitrile or acetonitrile/DMSO (9:1) is added. The substance is dissolved by putting the sample vessel in an ultrasonic bath for about 10 seconds. Then 0.5 ml of the respective buffer solution is added, and the sample is again treated in the ultrasonic bath.
(Buffer) solutions employed:
pH 4: 1 liter of Millipore water is adjusted to pH 4.0 with 1 N hydrochloric acid;
pH 5: 0.096 mol of citric acid and 0.2 mol of sodium hydroxide ad 1 liter of water;
pH 7.4: 90.0 g of sodium chloride, 13.61 g of potassium dihydrogen phosphate and 83.35 g of 1 N sodium hydroxide solution are made up to 1 liter with water; this solution is then further diluted 1:10 with Millipore water.
pH 8: 0.013 mol of borax and 0.021 mol of hydrochloric acid ad 1 liter of water.
5 μl portions of the test solution are analyzed by HPLC for their content of unchanged test substance, and of basic mother substance of the formula (A) formed, every hour over a period of 24 hours at 37° C. The percentage areas of the appropriate peaks are used for quantification.
HPLC method for example 1:
(§1) Agilent 1100 with DAD (G1315B), binary pump (G1312A), autosampler (G1329A), column oven (G1316A), thermostat (G1330B); column: Kromasil 100 C18, 125 mm×4 mm, 5 μm; column temperature: 30° C.; eluent A: water+5 ml perchloric acid/liter, eluent B: acetonitrile; gradient: 0 min 90% A→2.0 min 70% A→18.0 min 70% A 20.0 min 10% A→21.0 min 10% A→23.0 min 90% A→26.0 min 90% A; flow rate: 2.0 ml/min;
HPLC method for example 3:
as §1, with “(G1314A),” for “(G1315B),”, “(G1330A);” for “(G1330B);”, “64%” for “70%”, “64% A→20.0” for “70% A 20.0”, “ml/min UV detection: 294 nm.” for “ml/min;”
HPLC method for example 11:
as §1, with “ml of” for “ml”, “64%” for “70%”, “64% A→20.0” for “70% A 20.0”, “ml/min; UV detection: 294 nm.” for “ml/min;”
HPLC method for example 14:
Agilent 1100 with DAD (G1315B), binary pump (G1312A), autosampler (G1329A), column oven (G1316A), thermostat (G1330B); column: Kromasil 100 C18, 250 mm×4 mm, 5 μm; column temperature: 30° C.; eluent A: water+5 ml of perchloric acid/liter, eluent B: acetonitrile; gradient: 0 min 90% A→7.0 min 52% A→18.0 min 52% A→20.0 min 10% A→21.0 min 10% A→23.0 min 90% A -4 26.0 min 90% A; flow rate: 2.0 ml/min; UV detection: 288 nm.
HPLC method for example 18:
Agilent 1100 with DAD (G1315A), binary pump (G1312A), autosampler (G1329A), column oven (G1316A), thermostat (G1330A); column: Kromasil 100 C18, 125 mm×4 mm, 5 μm; column temperature: 30° C.; eluent A: water+5 ml of perchloric acid/liter, eluent B: acetonitrile; gradient: 0 min 90% A→6.0 min 61% A→18.0 min 61% A→20.0 min 10% A→21.0 min 10% A→23.0 min 90% A→26.0 min 90% A; flow rate: 2.0 ml/min; UV detection: 294 nm.
The ratios of the peak areas (F) at the respective time points in relation to the peak areas at the starting time are shown in Table 3 for representative exemplary embodiments: […]

[2] = Determination of the solubility (suspension shaken 24 h at room temperature, HPLC of supernatant); settings: 0.1 M hydrochloric acid, simulated gastric fluid, thermodynamic from solid
[3] = as above; settings: thermodynamic from solid
Experimental: The test substance is suspended in water or dilute hydrochloric acid (pH 4) or in 5% strength aqueous dextrose solution. This suspension is shaken at room temperature for 24 h. After ultracentrifugation at 224 000 g for 30 min, the supernatant is diluted with DMSO and analysed by HPLC. A two-point calibration plot of the test compound in DMSO is used for quantification.
Agilent 1100 with DAD (G1315A), quat. Pump (G1311A), autosampler CTC HTS PAL, degasser (G1322A) and column thermostat (G1316A); column: Phenomenex Gemini C18, 5 μm, 50 mm×2 mm; temperature: 40° C.; eluent A: water/phosphoric acid pH 2, eluent B: acetonitrile; flow rate: 0.7 ml/min; gradient: 0-0.5 min 85% A, 15% B; ramp 0.5-3 min 10% A, 90% B; 3-3.5 min 10% A, 90% B; ramp 3.5-4 min 85% A, 15% B; 4-5 min 85% A, 15% B.
Agilent 1100 with DAD (G1315A), quat. pump (G1311A), autosampler CTC HTS PAL, degasser (G1322A) and column thermostat (G1316A); column: VDSoptilab Kromasil 100 C18, 3.5 μm, 60 mm×2.1 mm; temperature: 30° C.; eluent A: water+5 ml of perchloric acid/liter, eluent B: acetonitrile; flow rate: 0.75 ml/min; gradient: 0-0.5 min 98% A, 2% B; ramp 0.5-4.5 min 10% A, 90% B; 4.5-6 min 10% A, 90% B; ramp 6.5-6.7 min 98% A, 2% B; 6.7-7.5 min 98% A, 2% B.
The solubilities of representative exemplary embodiments in dilute hydrochloric acid (pH 4) are shown in Table1: […]

[4] = saline or isotonic, 5% strength aqueous dextrose solution

Row | SMILES | % test substance after 4 h [F(t = 4 h) × 100/F(t = 0 h)] ([1]; pH 4, 37° C.) [%] | % test substance after 24 h [F(t = 24 h) × 100/F(t = 0 h)] ([1]; pH 4, 37° C.) [%] | % test substance after 4 h [F(t = 4 h) × 100/F(t = 0 h)] ([1]; pH 7.4, 37° C.) [%] | % test substance after 24 h [F(t = 24 h) × 100/F(t = 0 h)] ([1]; pH 7.4, 37° C.) [%] | solubility at 24 h [3, 4] [µg/mL] | also measured
1 | N#Cc1c(N)nc(SCc2coc(-c3ccc(Cl)cc3)n2)c(C#N)c1-c1ccc(OC[C@@H](COC(=O)CN)OC(=O)CN)cc1 [Example 3, (2S)-3-{4-[2-Amino-6-({[2-(4-chlorophenyl)-1,3-oxazol-4-yl]methyl}sulphanyl)-3,5-dicyanopyridin-4-yl]phenoxy}propane-1,2-diyl bis(aminoacetate) dihydrochloride] | 99 | 99 | 93 | 67 | – | –
2 | N#Cc1c(N)nc(SCc2coc(-c3ccc(Cl)cc3)n2)c(C#N)c1-c1ccc(OC[C@H](O)CO)cc1 [Example 8A, 2-Amino-6-({[2-(4-chlorophenyl)-1,3-oxazol-4-yl]methyl}sulfanyl)-4-(4-{[(2R)-2,3-dihydroxypropyl]oxy}phenyl)pyridine-3,5-dicarbonitrile, reference compound] | – | – | – | – | < 1.2 | solubility at 24 h [2]: < 0.1 µg/mL
3 | C[C@@H](N)C(=O)OC[C@H](COc1ccc(-c2c(C#N)c(N)nc(SCc3coc(-c4ccc(Cl)cc4)n3)c2C#N)cc1)OC(=O)[C@@H](C)N [Example 9, (2S)-3-{4-[2-Amino-6-({[2-(4-chlorophenyl)-1,3-oxazol-4-yl]methyl}sulfanyl)-3,5-dicyanopyridin-4-yl]phenoxy}propane-1,2-diyl(2R,2′R)-bis(2-aminopropanoate)dihydrochloride] | – | – | – | – | – | solubility at 24 h ([3]; aqueous buffer, dilute hydrochloric acid (pH 4)): 535 µg/mL
4 | CC(C)[C@H](N)C(=O)OC[C@@H](COc1ccc(-c2c(C#N)c(N)nc(SCc3coc(-c4ccc(Cl)cc4)n3)c2C#N)cc1)OC(=O)[C@@H](N)C(C)C [Example 10, (2R)-3-{4-[2-Amino-6-({[2-(4-chlorophenyl)-1,3-oxazol-4-yl]methyl}sulphanyl)-3,5-dicyanopyridin-4-yl]phenoxy}propane-1,2-diyl(2S,2′S)-bis(2-amino-3-methylbutanoate)-dihydro-chloride] | – | – | – | – | > 500 | –
5 | C[C@H](N)C(=O)OC[C@@H](COc1ccc(-c2c(C#N)c(N)nc(SCc3coc(-c4ccc(Cl)cc4)n3)c2C#N)cc1)OC(=O)[C@H](C)N [Example 11, (2R)-3-{4-[2-Amino-6-({[2-(4-chlorophenyl)-1,3-oxazol-4-yl]methyl}sulphanyl)-3,5-dicyanopyridin-4-yl]phenoxy}propane-1,2-diyl(2S,2′S)-bis(2-aminopropanoate)dihydrochloride] | 96 | 96 | 84 | 44 | – | –
6 | N#Cc1c(N)nc(SCc2coc(-c3ccc(Cl)cc3)n2)c(C#N)c1-c1ccc(OC[C@@H](COC(=O)[C@@H](N)CCCCN)OC(=O)[C@@H](N)CCCCN)cc1 [Example 13, (2S)-3-{4-[2-Amino-6-({[2-(4-chlorophenyl)-1,3-oxazol-4-yl]methyl}sulphanyl)-3,5-dicyanopyridin-4-yl]phenoxy)propane-1,2-diyl(2S,2′S)-bis(2,6-diaminohexanoate)dihydrochloride] | – | – | – | – | 710 | –
7 | N#Cc1c(N)nc(SCc2coc(-c3ccc(Cl)cc3)n2)c(C#N)c1-c1ccc(OC[C@@H](COC(=O)CCCN)OC(=O)CCCN)cc1 [Example 14, (2S)-3-{4-[2-Amino-6-({[2-(4-chlorophenyl)-1,3-oxazol-4-yl]methyl}sulphanyl)-3,5-dicyanopyridin-4-yl]phenoxy}propane-1,2-diyl bis(4-aminobutanoate)dihydrochloride] | 97 | 92 | 93 | 74 | 540 | –
8 | N#Cc1c(N)nc(SCc2coc(-c3ccc(Cl)cc3)n2)c(C#N)c1-c1ccc(OC[C@@H](COC(=O)CCCCCN)OC(=O)CCCCCN)cc1 [Example 15, (2S)-3-{4-[2-Amino-6-({[2-(4-chlorophenyl)-1,3-oxazol-4-yl]methyl}sulphanyl)-3,5-dicyanopyridin-4-yl]phenoxy}propane-1,2-diyl bis(6-aminohexanoate) dihydrochloride] | – | – | – | – | 830 | –
9 | CC(C)[C@H](N)C(=O)OC[C@H](COc1ccc(-c2c(C#N)c(N)nc(SCc3coc(-c4ccc(Cl)cc4)n3)c2C#N)cc1)OC(=O)[C@@H](N)C(C)C [Example 16, (2S)-3-{4-[2-Amino-6-({[2-(4-chlorophenyl)-1,3-oxazol-4-yl]methyl}sulphanyl)-3,5-dicyanopyridin-4-yl]phenoxy}propane-1,2-diyl(2S,2′S)-bis(2-amino-3-methylbutanoate)bis(trifluoroacetic acid) salt] | – | – | – | – | 250 | –
10 | CC(C)C[C@H](N)C(=O)OC[C@H](COc1ccc(-c2c(C#N)c(N)nc(SCc3coc(-c4ccc(Cl)cc4)n3)c2C#N)cc1)OC(=O)[C@@H](N)CC(C)C [Example 17, (2S)-3-{4-[2-Amino-6-({[2-(4-chlorophenyl)-1,3-oxazol-4-yl]methyl}sulphanyl)-3,5-dicyanopyridin-4-yl]phenoxy}propane-1,2-diyl(2S,2′S)-bis(2-amino-4-methylpentanoate)bis(trifluoroacetic acid) salt] | – | – | – | – | 330 | –
11 | C[C@@H](O)[C@H](N)C(=O)OC[C@H](COc1ccc(-c2c(C#N)c(N)nc(SCc3coc(-c4ccc(Cl)cc4)n3)c2C#N)cc1)OC(=O)[C@@H](N)[C@@H](C)O [Example 18, (2S)-3-{4-[2-Amino-6-({[2-(4-chlorophenyl)-1,3-oxazol-4-yl]methyl}sulfanyl)-3,5-dicyanopyridin-4-yl]phenoxy}propane-1,2-diyl(2S,3R,2′S,3′R)-bis(2-amino-3-hydroxybutanoate)bis(trifluoroacetic acid) salt] | 100 | 95 | 95 | 72 | 240 | –
